Literature values as cited in patent US20030008851A1, “Acne treatment including dual-package system” (priority 2001, published 2003).

Key:
[1] = not given; remark: listed apart in the source

| pH of the solution produced (1 gram in about 460 ml of water at room temperature) | volume of water dissolving 1 gram (1 gram, water, room temperature) | solubility in water (water, room temperature) | volume of alcohol dissolving 1 gram ([1]; 1 gram) | SMILES | solubility in water (in words) (water) | solubility in alcohol (in words) [1] |
| --- | --- | --- | --- | --- | --- | --- |
|  |  |  |  | O=C(OOC(=O)c1ccccc1)c1ccccc1 [Benzoyl peroxide] | sparingly soluble | sparingly soluble |
| 2.4 | about 460 ml | about 0.2 % by weight | about 2.7 ml | O=C(O)c1ccccc1O [Salicylic acid] | sparingly soluble |  |
